Data set [1] concerns Nucleic Acid.
Another data set in a line: physchem. Conditions: 20% aqueous DMF.
In a further data set the test system is L1210. The experiment in a line: cells. Conditions: Mus musculus, L1210, read-out: ID50.
For data set [2], the system named is Nucleic Acid. This is another data set of the same source.

SMILES strings stand for the structures.

Description for L1210: Growth inhibition against cultured murine L1210 leukemia cells
Description for physchem: pKa value determined spectrophotometrically in 20% aqueous DMF

Take `COc1cc(NS(C)(=O)=O)ccc1Nc1c2ccc(Cl)cc2nc2c(C(N)=O)cccc12`: the results for the Log K in the data set with Nucleic Acid [1] and in the data set with Nucleic Acid [2] were 6.58 and 6.33, respectively. The compound also came in with a pKa in “physchem” of 5.68. Besides, in the data set with L1210, the IC50 was found to be 520 nM.

On to `COc1cc(NS(C)(=O)=O)ccc1Nc1c2ccccc2nc2c(C(=O)NCC(N)=O)cccc12`, for which the Log K in the data set with Nucleic Acid [1] came to 6.4; with Nucleic Acid [2], 5.39. The IC50 with L1210 worked out at 850 nM.

`CNC(=O)c1cccc2c(Nc3ccc(NS(C)(=O)=O)cc3OC)c3ccc(Cl)cc3nc12`: the Log K in the data set on Nucleic Acid [1] is 6.65; in the data set with Nucleic Acid [2], 6.29. In the data set “physchem”, this compound registered a pKa of 5.68. In addition, the IC50 with L1210 is 217 nM.

In the case of `CNC(=O)c1cccc2c(Nc3ccc(NS(C)(=O)=O)cc3OC)c3ccc(C)cc3nc12`, the Log K in the data set on Nucleic Acid [1] came out at 6.68; in the data set on Nucleic Acid [2], 6.22. The pKa in “physchem” was found to be 4.71. Also, the IC50 in the data set on L1210 was determined as 170 nM.

Take `COc1cc(NS(C)(=O)=O)ccc1Nc1c2ccc(Cl)cc2nc2c(C(=O)NCC(N)=O)cccc12`: the Log K is 6.83 in the data set with Nucleic Acid [1] and 6.06 in the data set on Nucleic Acid [2]. This compound gave a pKa in “physchem” of 5.5. Besides, in the data set with L1210, the IC50 is 890 nM.

In the case of `COc1cc(NS(C)(=O)=O)ccc1Nc1c2ccccc2nc2ccccc12`, the Log K in the data set on Nucleic Acid [1] was determined as 5.65; in the data set with Nucleic Acid [2], 5.57.

Take `COc1cc(NS(C)(=O)=O)ccc1Nc1c2ccc([N+](=O)[O-])cc2nc2c(C(N)=O)cccc12`: the Log K in the data set on Nucleic Acid [1] turned out to be 6.4; in the data set with Nucleic Acid [2], 5.96. In the data set “physchem”, this compound had a pKa of 4.71. Moreover, in the data set with L1210, the IC50 is 350 nM.

As for `CNC(=O)c1cccc2c(Nc3ccc(NS(C)(=O)=O)cc3OC)c3ccc(OC)cc3nc12`, the Log K in the data set on Nucleic Acid [1] amounted to 6.82; in the data set on Nucleic Acid [2] it was 6.38. Also, the pKa in “physchem” is 4.82. Besides, in the data set with L1210, the IC50 stood at 68 nM.

Take `COc1cc(NS(C)(=O)=O)ccc1Nc1c2ccc(C)cc2nc2c(C(N)=O)cccc12`: the Log K in the data set with Nucleic Acid [1] turned out to be 6.3; in the data set on Nucleic Acid [2] it was 6.4. Further, the pKa in the data set “physchem” came out at 4.71. For the same compound, in the data set on L1210, the IC50 was determined as 200 nM.

As to `COc1cc(NS(C)(=O)=O)ccc1Nc1c2ccccc2nc2cc(N)ccc12`, the Log K came to 6.13 in the data set with Nucleic Acid [1] and 6.21 in the data set on Nucleic Acid [2]. Besides, the pKa in the data set “physchem” was 9.5. Further, the IC50 in the data set on L1210 is 5.5 nM.

In the case of `COc1cc(NS(C)(=O)=O)ccc1Nc1c2ccccc2nc2c(C(N)=O)cccc12`, the results for the Log K in the data set on Nucleic Acid [1] and in the data set with Nucleic Acid [2] were 6.13 and 5.47, respectively. For the same compound, the IC50 in the data set with L1210 was determined as 270 nM.

With `CNC(=O)c1cccc2c(Nc3ccc(NS(C)(=O)=O)cc3OC)c3ccc([N+](=O)[O-])cc3nc12`, the Log K with Nucleic Acid [1] amounted to 6.65; in the data set with Nucleic Acid [2] it was 5.71. In addition, the pKa in the data set “physchem” worked out at 4.71. Moreover, the IC50 in the data set on L1210 came to 303 nM.

As to `COc1cc(NS(C)(=O)=O)ccc1Nc1c2ccc(C)cc2nc2c(C(=O)NCC(N)=O)cccc12`, the Log K worked out at 6.69 in the data set on Nucleic Acid [1] and 6 in the data set on Nucleic Acid [2]. For the same compound, the pKa in “physchem” amounted to 4.53. Further, the IC50 in the data set on L1210 was determined as 460 nM.

For `COc1cc(NS(C)(=O)=O)ccc1Nc1c2ccccc2nc2cc(C)ccc12`, the Log K with Nucleic Acid [1] is 6.08; in the data set on Nucleic Acid [2] it was 5.95. Also, the IC50 with L1210 came to 12 nM.

On to `COc1cc(NS(C)(=O)=O)ccc1Nc1c2ccccc2nc2cc(Cl)ccc12`, for which the Log K stood at 5.98 in the data set with Nucleic Acid [1] and 6.06 in the data set on Nucleic Acid [2]. In addition, the IC50 in the data set on L1210 stood at 70 nM.

Regarding `COc1cc(NS(C)(=O)=O)ccc1Nc1c2ccccc2nc2cc([N+](=O)[O-])ccc12`, the Log K in the data set on Nucleic Acid [1] worked out at 6.13; in the data set with Nucleic Acid [2], 5.65. Moreover, in the data set “physchem”, the pKa was found to be 5.52. Moreover, the IC50 in the data set with L1210 amounted to 110 nM.

For the compound `COc1cc(NS(C)(=O)=O)ccc1Nc1c2ccccc2nc2cc(I)ccc12`, the Log K with Nucleic Acid [1] was 6.2; in the data set with Nucleic Acid [2] it was 6.35. Further, the IC50 in the data set on L1210 was 50 nM.

For `COc1cc(NS(C)(=O)=O)ccc1Nc1c2ccccc2nc2cc(Br)ccc12`, the values for the Log K with Nucleic Acid [1] and with Nucleic Acid [2] were 6.12 and 6.29, respectively. Moreover, the IC50 in the data set on L1210 amounted to 50 nM.

Regarding `CNC(=O)c1cccc2c(Nc3ccc(NS(C)(=O)=O)cc3OC)c3ccccc3nc12`, the Log K stood at 6.18 in the data set on Nucleic Acid [1] and 5.54 in the data set on Nucleic Acid [2]. Also, in the data set on L1210, the IC50 amounted to 270 nM.

For `CNC(=O)c1cccc2c(Nc3ccc(NS(C)(=O)=O)cc3OC)c3ccc(N)cc3nc12`, the Log K in the data set on Nucleic Acid [1] was determined as 6.82; with Nucleic Acid [2] it was 6.29. Further, the IC50 with L1210 turned out to be 21 nM.

Regarding `COc1ccc2c(Nc3ccc(NS(C)(=O)=O)cc3OC)c3ccccc3nc2c1`, the figures for the Log K with Nucleic Acid [1] and with Nucleic Acid [2] were 5.97 and 5.83, respectively. The IC50 in the data set on L1210 was 22 nM.

Broadly, the pKa is the pH at which an ionisable group is half protonated. The low end stands for a stronger acid or weaker base, the high end for a weaker acid or stronger base.

The values are drawn from ChEMBL document CHEMBL1122503 (J Med Chem, 1983).
